Reference: article PMC9059125 (Journal of Medicinal Chemistry, 2022)
Like-named read-outs stand apart in the source and are kept apart here. Where a SMILES comes first, the peptide text is derived from it.

How the values were obtained:
[1] = simulated gi fluid, pH 6.8
[2] = biological target: T1, human oxytocin receptor (OTR) (Homo sapiens, UniProt P30559); experiment: NIMH PDSP FLIPR-TETRA Ca2+-mobilization assay; type: cell-based; conditions: agonist, Ca2+ assay, NIMH PDSP, n ≥ 2; read-out: EC50 ± SEM OTR
T1 construct: NIMH PDSP (data provider)
T1 sequence (P30559 1-389): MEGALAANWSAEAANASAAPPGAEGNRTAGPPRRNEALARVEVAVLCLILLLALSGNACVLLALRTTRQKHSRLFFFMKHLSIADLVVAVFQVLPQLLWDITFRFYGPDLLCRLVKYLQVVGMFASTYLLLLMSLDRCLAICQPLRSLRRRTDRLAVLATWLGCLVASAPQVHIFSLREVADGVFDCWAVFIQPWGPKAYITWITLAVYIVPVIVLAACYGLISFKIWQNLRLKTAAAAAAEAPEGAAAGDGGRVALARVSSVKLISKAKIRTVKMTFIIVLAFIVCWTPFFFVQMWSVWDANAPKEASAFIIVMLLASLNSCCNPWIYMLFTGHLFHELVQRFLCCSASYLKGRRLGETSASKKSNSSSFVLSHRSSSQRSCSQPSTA

[3] = simulated gi fluid, pH 1.2

Compound	t1/2 SIF ([1]; pig)	EC50 [2]	t1/2 SIF [1]	t1/2 SGF [3]
[H][C@@]12CCCN1C(=O)[C@]1([H])CCCN1C(=O)[C@H]([C@@H](C)CC)NC(=O)[C@H](CO)NC(=O)[C@H](CCCCN)NC(=O)[C@H]([C@@H](C)O)NC(=O)[C@@H]1CSSC[C@H](NC(=O)[C@H]([C@@H](C)CC)NC2=O)C(=O)N[C@@H](Cc2ccc(O)cc2)C(=O)N[C@@H]([C@@H](C)CC)C(=O)N[C@@H](CCC(N)=O)C(=O)N[C@@H](CC(N)=O)C(=O)N1 [SFTI-1(OT^[2-5])] (HELM PEPTIDE1{C.T.K.S.I.P.P.I.C.Y.I.Q.N}$PEPTIDE1,PEPTIDE1,1:R3-9:R3|PEPTIDE1,PEPTIDE1,1:R1-13:R2$$$V2.0)	31 ± 3 min	> 30 µM		
[H][C@@]12CCCN1C(=O)[C@H](CC)NC(=O)[C@H](CC(N)=O)NC(=O)[C@H](CCC(N)=O)NC(=O)[C@H]([C@@H](C)CC)NC(=O)[C@H](Cc1ccc(O)cc1)NC(=O)[C@@H]1CSSC[C@H](NC(=O)CNC(=O)[C@H](CC(C)C)NC2=O)C(=O)N[C@@H]([C@@H](C)O)C(=O)N[C@@H](CCCCN)C(=O)N[C@@H](CO)C(=O)N[C@@H]([C@@H](C)CC)C(=O)N2CCC[C@@]2([H])C(=O)N2CCC[C@@]2([H])C(=O)N[C@@H]([C@@H](C)CC)C(=O)N1 [SFTI-1(OT^[2-9])] (HELM PEPTIDE1{[Abu].P.L.G.C.T.K.S.I.P.P.I.C.Y.I.Q.N}$PEPTIDE1,PEPTIDE1,5:R3-13:R3|PEPTIDE1,PEPTIDE1,1:R1-17:R2$$$V2.0)	3 ± 1 min	> 30 µM		
[H][C@@]12CCCN1C(=O)[C@]1([H])CCCN1C(=O)[C@H]([C@@H](C)CC)NC(=O)[C@H](CO)NC(=O)[C@H](CCCCN)NC(=O)[C@H]([C@@H](C)O)NC(=O)[C@@H]1CSSC[C@H](NC(=O)[C@H]([C@@H](C)CC)NC2=O)C(=O)N[C@@H](Cc2ccc(O)cc2)C(=O)N[C@@H](Cc2ccccc2)C(=O)N[C@@H](CCC(N)=O)C(=O)N[C@@H](CC(N)=O)C(=O)N1 [SFTI-1(VP^[2-5])] (HELM PEPTIDE1{C.T.K.S.I.P.P.I.C.Y.F.Q.N}$PEPTIDE1,PEPTIDE1,1:R3-9:R3|PEPTIDE1,PEPTIDE1,1:R1-13:R2$$$V2.0)	12 ± 1 min	> 30 µM		
[H][C@@]12CCCN1C(=O)[C@H](CC)NC(=O)[C@H](CC(N)=O)NC(=O)[C@H](CCC(N)=O)NC(=O)[C@H](Cc1ccccc1)NC(=O)[C@H](Cc1ccc(O)cc1)NC(=O)[C@@H]1CSSC[C@H](NC(=O)CNC(=O)[C@H](CCCNC(=N)N)NC2=O)C(=O)N[C@@H]([C@@H](C)O)C(=O)N[C@@H](CCCCN)C(=O)N[C@@H](CO)C(=O)N[C@@H]([C@@H](C)CC)C(=O)N2CCC[C@@]2([H])C(=O)N2CCC[C@@]2([H])C(=O)N[C@@H]([C@@H](C)CC)C(=O)N1 [SFTI-1(VP^[2-9])] (HELM PEPTIDE1{[Abu].P.R.G.C.T.K.S.I.P.P.I.C.Y.F.Q.N}$PEPTIDE1,PEPTIDE1,5:R3-13:R3|PEPTIDE1,PEPTIDE1,1:R1-17:R2$$$V2.0)		> 30 µM	<3 min	
CC[C@H](C)[C@@H]1NC(=O)[C@H](CCC(=O)O)NC(=O)[C@@H]2CCCN2C(=O)[C@H](Cc2cnc[nH]2)NC(=O)[C@H](CC(=O)O)NC(=O)[C@H](Cc2ccc(O)cc2)NC(=O)[C@H](CC(N)=O)NC(=O)[C@@H]2CSSC[C@H](NC(=O)CN)C(=O)N[C@@H](CSSC[C@@H](C(N)=O)NC1=O)C(=O)N[C@@H](CO)C(=O)N[C@@H](CC(=O)O)C(=O)N1CCC[C@H]1C(=O)N[C@@H](CCCNC(=N)N)C(=O)N2 [Vc1.1, reference compound]	144 ± 12 min			>1440 min
[H][C@@]12CCCN1C(=O)[C@@H]1CSSC[C@H](NC(=O)CNC(=O)[C@H](CC(C)C)NC(=O)[C@]3([H])CCCN3C(=O)[C@@H]3CSSC[C@H](NC(=O)CNC(=O)[C@H](CC(C)C)NC2=O)C(=O)N[C@@H](Cc2ccc(O)cc2)C(=O)N[C@@H]([C@@H](C)CC)C(=O)N[C@@H](CCC(N)=O)C(=O)N[C@@H](CC(N)=O)C(=O)N3)C(=O)N[C@@H](Cc2ccc(O)cc2)C(=O)N[C@@H]([C@@H](C)CC)C(=O)N[C@@H](CCC(N)=O)C(=O)N[C@@H](CC(N)=O)C(=O)N1 [c(OT)2] (HELM PEPTIDE1{C.P.L.G.C.Y.I.Q.N.C.P.L.G.C.Y.I.Q.N}$PEPTIDE1,PEPTIDE1,1:R3-14:R3|PEPTIDE1,PEPTIDE1,5:R3-10:R3|PEPTIDE1,PEPTIDE1,1:R1-18:R2$$$V2.0)			<3 min	
[H][C@@]12CCCN1C(=O)[C@@H]1CSSC[C@H](NC(=O)CNC(=O)[C@H](CC(C)C)NC(=O)[C@]3([H])CCCN3C(=O)[C@@H]3CSSC[C@H](NC(=O)CNC(=O)[C@H](CCCNC(=N)N)NC2=O)C(=O)N[C@@H](Cc2ccc(O)cc2)C(=O)N[C@@H]([C@@H](C)CC)C(=O)N[C@@H](CCC(N)=O)C(=O)N[C@@H](CC(N)=O)C(=O)N3)C(=O)N[C@@H](Cc2ccc(O)cc2)C(=O)N[C@@H](Cc2ccccc2)C(=O)N[C@@H](CCC(N)=O)C(=O)N[C@@H](CC(N)=O)C(=O)N1 [c(OT-VP)] (HELM PEPTIDE1{C.P.L.G.C.Y.F.Q.N.C.P.R.G.C.Y.I.Q.N}$PEPTIDE1,PEPTIDE1,1:R3-14:R3|PEPTIDE1,PEPTIDE1,5:R3-10:R3|PEPTIDE1,PEPTIDE1,1:R1-18:R2$$$V2.0)			<3 min	
[H][C@@]12CCCN1C(=O)[C@@H]1CSSC[C@H](NC(=O)CNC(=O)[C@H](CCCNC(=N)N)NC(=O)[C@]3([H])CCCN3C(=O)[C@@H]3CSSC[C@H](NC(=O)CNC(=O)[C@H](CCCNC(=N)N)NC2=O)C(=O)N[C@@H](Cc2ccc(O)cc2)C(=O)N[C@@H](Cc2ccccc2)C(=O)N[C@@H](CCC(N)=O)C(=O)N[C@@H](CC(N)=O)C(=O)N3)C(=O)N[C@@H](Cc2ccc(O)cc2)C(=O)N[C@@H](Cc2ccccc2)C(=O)N[C@@H](CCC(N)=O)C(=O)N[C@@H](CC(N)=O)C(=O)N1 [c(VP)2] (HELM PEPTIDE1{C.P.R.G.C.Y.F.Q.N.C.P.R.G.C.Y.F.Q.N}$PEPTIDE1,PEPTIDE1,1:R3-14:R3|PEPTIDE1,PEPTIDE1,5:R3-10:R3|PEPTIDE1,PEPTIDE1,1:R1-18:R2$$$V2.0)			<3 min	
